{"source": "paper PMC4362760", "about": "“JAK2^V617F Drives Mcl-1 Expression and Sensitizes Hematologic Cell Lines to Dual Inhibition of JAK2 and Bcl-xL” (PLoS ONE, 2015)", "key": {"[1]": {"system": "HEL cells", "experiment": "Cell viability of HEL cells after siRNA transfection and 72 hr ABT-263", "format": "cell-based", "method": "(§1) Transfection of siRNAs was performed using Lipofectamine RNAiMAX according to the manufacturer’s recommendations. […] Caspase-3 activity was determined using the Caspase-GLO 3/7 Assay (Promega) in parallel with the CellTiter-GLO viability assay (Promega). The data are expressed as Caspase-3/7 activity divided by cell viability. […]"}, "[2]": {"system": "K562 cells", "experiment": "Cell viability of K562 cells after siRNA transfection and 72 hr ABT-263", "format": "cell-based", "method": "as §1\nData are means of duplicate samples and are representative of two independent experiments. (XLS) Click here for additional data file."}, "[3]": {"molecular_target": "Bcl-w", "settings": "cited from earlier work"}, "[4]": {"system": "multiple xenograft models", "settings": "oral, single agent and in combination with standard of care chemotherapies; cited from earlier work"}}, "data": [{"smiles": "CC1(C)CCC(c2ccc(Cl)cc2)=C(CN2CCN(c3ccc(C(=O)NS(=O)(=O)c4ccc(N[C@H](CCN5CCOCC5)CSc5ccccc5)c(S(=O)(=O)C(F)(F)F)c4)cc3)CC2)C1", "note": "[ABT-263]", "values": [{"measurement": "Cell Viability (% Inhibiton)", "setting": "[1]; Unt., ABT-263 0.003 uM", "result": 0, "unit": "%"}, {"measurement": "Cell Viability (% Inhibiton)", "setting": "[1]; Unt., ABT-263 0.01 uM", "result": 0, "unit": "%"}, {"measurement": "Cell Viability (% Inhibiton)", "setting": "[1]; Unt., ABT-263 0.03 uM", "result": 3, "unit": "%"}, {"measurement": "Cell Viability (% Inhibiton)", "setting": "[1]; Unt., ABT-263 0.1 uM", "result": 37, "unit": "%"}, {"measurement": "Cell Viability (% Inhibiton)", "setting": "[1]; Unt., ABT-263 0.3 uM", "result": 94, "unit": "%"}, {"measurement": "Cell Viability (% Inhibiton)", "setting": "[1]; Unt., ABT-263 1 uM", "result": 97, "unit": "%"}, {"measurement": "Cell Viability (% Inhibiton)", "setting": "[1]; siMcl1-1, ABT-263 0.003 uM", "result": 0, "unit": "%"}, {"measurement": "Cell Viability (% Inhibiton)", "setting": "[1]; siMcl1-1, ABT-263 0.01 uM", "result": 0, "unit": "%"}, {"measurement": "Cell Viability (% Inhibiton)", "setting": "[1]; siMcl1-1, ABT-263 0.03 uM", "result": 0, "unit": "%"}, {"measurement": "Cell Viability (% Inhibiton)", "setting": "[1]; siMcl1-1, ABT-263 0.1 uM", "result": 40, "unit": "%"}, {"measurement": "Cell Viability (% Inhibiton)", "setting": "[1]; siMcl1-1, ABT-263 0.3 uM", "result": 97, "unit": "%"}, {"measurement": "Cell Viability (% Inhibiton)", "setting": "[1]; siMcl1-1, ABT-263 1 uM", "result": 100, "unit": "%"}, {"measurement": "Cell Viability (% Inhibiton)", "setting": "[1]; siMcl1-2, ABT-263 0.003 uM", "result": 0, "unit": "%"}, {"measurement": "Cell Viability (% Inhibiton)", "setting": "[1]; siMcl1-2, ABT-263 0.01 uM", "result": 21, "unit": "%"}, {"measurement": "Cell Viability (% Inhibiton)", "setting": "[1]; siMcl1-2, ABT-263 0.03 uM", "result": 38, "unit": "%"}, {"measurement": "Cell Viability (% Inhibiton)", "setting": "[1]; siMcl1-2, ABT-263 0.1 uM", "result": 79, "unit": "%"}, {"measurement": "Cell Viability (% Inhibiton)", "setting": "[1]; siMcl1-2, ABT-263 0.3 uM", "result": 100, "unit": "%"}, {"measurement": "Cell Viability (% Inhibiton)", "setting": "[1]; siMcl1-2, ABT-263 1 uM", "result": 100, "unit": "%"}, {"measurement": "Cell Viability (% Inhibiton)", "setting": "[1]; siMcl1-3, ABT-263 0.003 uM", "result": 0, "unit": "%"}, {"measurement": "Cell Viability (% Inhibiton)", "setting": "[1]; siMcl1-3, ABT-263 0.01 uM", "result": 37, "unit": "%"}, {"measurement": "Cell Viability (% Inhibiton)", "setting": "[1]; siMcl1-3, ABT-263 0.03 uM", "result": 65, "unit": "%"}, {"measurement": "Cell Viability (% Inhibiton)", "setting": "[1]; siMcl1-3, ABT-263 0.1 uM", "result": 90, "unit": "%"}, {"measurement": "Cell Viability (% Inhibiton)", "setting": "[1]; siMcl1-3, ABT-263 0.3 uM", "result": 100, "unit": "%"}, {"measurement": "Cell Viability (% Inhibiton)", "setting": "[1]; siMcl1-3, ABT-263 1 uM", "result": 100, "unit": "%"}, {"measurement": "Cell Viability (% Inhibiton)", "setting": "[1]; siMcl1-4, ABT-263 0.003 uM", "result": 0, "unit": "%"}, {"measurement": "Cell Viability (% Inhibiton)", "setting": "[1]; siMcl1-4, ABT-263 0.01 uM", "result": 58, "unit": "%"}, {"measurement": "Cell Viability (% Inhibiton)", "setting": "[1]; siMcl1-4, ABT-263 0.03 uM", "result": 85, "unit": "%"}, {"measurement": "Cell Viability (% Inhibiton)", "setting": "[1]; siMcl1-4, ABT-263 0.1 uM", "result": 94, "unit": "%"}, {"measurement": "Cell Viability (% Inhibiton)", "setting": "[1]; siMcl1-4, ABT-263 0.3 uM", "result": 100, "unit": "%"}, {"measurement": "Cell Viability (% Inhibiton)", "setting": "[1]; siMcl1-4, ABT-263 1 uM", "result": 100, "unit": "%"}, {"measurement": "Cell Viability (% Inhibiton)", "setting": "[1]; siNT-1, ABT-263 0.003 uM", "result": 0, "unit": "%"}, {"measurement": "Cell Viability (% Inhibiton)", "setting": "[1]; siNT-1, ABT-263 0.01 uM", "result": 0, "unit": "%"}, {"measurement": "Cell Viability (% Inhibiton)", "setting": "[1]; siNT-1, ABT-263 0.03 uM", "result": 7, "unit": "%"}, {"measurement": "Cell Viability (% Inhibiton)", "setting": "[1]; siNT-1, ABT-263 0.1 uM", "result": 30, "unit": "%"}, {"measurement": "Cell Viability (% Inhibiton)", "setting": "[1]; siNT-1, ABT-263 0.3 uM", "result": 93, "unit": "%"}, {"measurement": "Cell Viability (% Inhibiton)", "setting": "[1]; siNT-1, ABT-263 1 uM", "result": 98, "unit": "%"}, {"measurement": "Cell Viability (% Inhibiton)", "setting": "[2]; K562, Unt., ABT-263 0.003 uM", "result": 0, "unit": "%"}, {"measurement": "Cell Viability (% Inhibiton)", "setting": "[2]; K562, Unt., ABT-263 0.01 uM", "result": 0, "unit": "%"}, {"measurement": "Cell Viability (% Inhibiton)", "setting": "[2]; K562, Unt., ABT-263 0.03 uM", "result": 0, "unit": "%"}, {"measurement": "Cell Viability (% Inhibiton)", "setting": "[2]; K562, Unt., ABT-263 0.1 uM", "result": 0, "unit": "%"}, {"measurement": "Cell Viability (% Inhibiton)", "setting": "[2]; K562, Unt., ABT-263 0.3 uM", "result": 0, "unit": "%"}, {"measurement": "Cell Viability (% Inhibiton)", "setting": "[2]; K562, Unt., ABT-263 1 uM", "result": 5, "unit": "%"}, {"measurement": "Cell Viability (% Inhibiton)", "setting": "[2]; K562, siMcl1-1, ABT-263 0.003 uM", "result": 0, "unit": "%"}, {"measurement": "Cell Viability (% Inhibiton)", "setting": "[2]; K562, siMcl1-1, ABT-263 0.01 uM", "result": 0, "unit": "%"}, {"measurement": "Cell Viability (% Inhibiton)", "setting": "[2]; K562, siMcl1-1, ABT-263 0.03 uM", "result": 0, "unit": "%"}, {"measurement": "Cell Viability (% Inhibiton)", "setting": "[2]; K562, siMcl1-1, ABT-263 0.1 uM", "result": 0, "unit": "%"}, {"measurement": "Cell Viability (% Inhibiton)", "setting": "[2]; K562, siMcl1-1, ABT-263 0.3 uM", "result": 0, "unit": "%"}, {"measurement": "Cell Viability (% Inhibiton)", "setting": "[2]; K562, siMcl1-1, ABT-263 1 uM", "result": 0, "unit": "%"}, {"measurement": "Cell Viability (% Inhibiton)", "setting": "[2]; K562, siMcl1-2, ABT-263 0.003 uM", "result": 0, "unit": "%"}, {"measurement": "Cell Viability (% Inhibiton)", "setting": "[2]; K562, siMcl1-2, ABT-263 0.01 uM", "result": 0, "unit": "%"}, {"measurement": "Cell Viability (% Inhibiton)", "setting": "[2]; K562, siMcl1-2, ABT-263 0.03 uM", "result": 0, "unit": "%"}, {"measurement": "Cell Viability (% Inhibiton)", "setting": "[2]; K562, siMcl1-2, ABT-263 0.1 uM", "result": 2, "unit": "%"}, {"measurement": "Cell Viability (% Inhibiton)", "setting": "[2]; K562, siMcl1-2, ABT-263 0.3 uM", "result": 11, "unit": "%"}, {"measurement": "Cell Viability (% Inhibiton)", "setting": "[2]; K562, siMcl1-2, ABT-263 1 uM", "result": 21, "unit": "%"}, {"measurement": "Cell Viability (% Inhibiton)", "setting": "[2]; K562, siMcl1-3, ABT-263 0.003 uM", "result": 0, "unit": "%"}, {"measurement": "Cell Viability (% Inhibiton)", "setting": "[2]; K562, siMcl1-3, ABT-263 0.01 uM", "result": 0, "unit": "%"}, {"measurement": "Cell Viability (% Inhibiton)", "setting": "[2]; K562, siMcl1-3, ABT-263 0.03 uM", "result": 0, "unit": "%"}, {"measurement": "Cell Viability (% Inhibiton)", "setting": "[2]; K562, siMcl1-3, ABT-263 0.1 uM", "result": 0, "unit": "%"}, {"measurement": "Cell Viability (% Inhibiton)", "setting": "[2]; K562, siMcl1-3, ABT-263 0.3 uM", "result": 13, "unit": "%"}, {"measurement": "Cell Viability (% Inhibiton)", "setting": "[2]; K562, siMcl1-3, ABT-263 1 uM", "result": 32, "unit": "%"}, {"measurement": "Cell Viability (% Inhibiton)", "setting": "[2]; K562, siMcl1-4, ABT-263 0.003 uM", "result": 0, "unit": "%"}, {"measurement": "Cell Viability (% Inhibiton)", "setting": "[2]; K562, siMcl1-4, ABT-263 0.01 uM", "result": 3, "unit": "%"}, {"measurement": "Cell Viability (% Inhibiton)", "setting": "[2]; K562, siMcl1-4, ABT-263 0.03 uM", "result": 22, "unit": "%"}, {"measurement": "Cell Viability (% Inhibiton)", "setting": "[2]; K562, siMcl1-4, ABT-263 0.1 uM", "result": 60, "unit": "%"}, {"measurement": "Cell Viability (% Inhibiton)", "setting": "[2]; K562, siMcl1-4, ABT-263 0.3 uM", "result": 75, "unit": "%"}, {"measurement": "Cell Viability (% Inhibiton)", "setting": "[2]; K562, siMcl1-4, ABT-263 1 uM", "result": 80, "unit": "%"}, {"measurement": "Cell Viability (% Inhibiton)", "setting": "[2]; K562, siNT-1, ABT-263 0.003 uM", "result": 0, "unit": "%"}, {"measurement": "Cell Viability (% Inhibiton)", "setting": "[2]; K562, siNT-1, ABT-263 0.01 uM", "result": 0, "unit": "%"}, {"measurement": "Cell Viability (% Inhibiton)", "setting": "[2]; K562, siNT-1, ABT-263 0.03 uM", "result": 0, "unit": "%"}, {"measurement": "Cell Viability (% Inhibiton)", "setting": "[2]; K562, siNT-1, ABT-263 0.1 uM", "result": 0, "unit": "%"}, {"measurement": "Cell Viability (% Inhibiton)", "setting": "[2]; K562, siNT-1, ABT-263 0.3 uM", "result": 2, "unit": "%"}, {"measurement": "Cell Viability (% Inhibiton)", "setting": "[2]; K562, siNT-1, ABT-263 1 uM", "result": 10, "unit": "%"}, {"measurement": "Ki", "setting": "[3]", "result": "< 1", "unit": "nM"}, {"measurement": "activity in xenograft models", "setting": "[4]", "result": "pronounced oral activity"}]}]}
